Test results as given in patent publication US7892764B2, “System for seizure suppression” (priority 2006, dated 2011).

Experiments:
[1] = system: cultured mouse hippocampal neurons; assay: Cell culture model of epilepsy: kynurenic acid (Kyn) withdrawal-induced seizure-like activity, current-clamp recording; format: cell-based
Source text: We hypothesized that ASICs are involved in seizure propagation. Using the Furshpan and Potter cell culture model of epilepsy (Meller et al., 2003; Furshpan et al., 1998), we tested ASIC blockade in mouse hippocampal neurons cultured with the glutamate antagonist kynurenate (Kyn) and elevated Mg^2+. In the presence of Kyn, the majority of hippocampal neurons remained quiescent. […] Without amiloride, Kyn withdrawal-induced sustained depolarization of 39.5±2.1 mV and paroxysmal bursts at 4.0±0.5 Hz. With 30 μM amiloride, membrane depolarization was reduced to 28.6±2.7 mV (p<0.05, n=5) and burst activity reduced to 2.5±0.4 Hz (p<0.01, FIGS. 3C and 3D). Similarly, application of PcTX1 reduced membrane depolarization from 30.2±3.7 mV to 10.7±1.8 mV (n=8, p<0.01) and burst activity from 5.5±0.6 Hz to 1.2±0.3 Hz (n=9, p<0.01, FIGS. 3C, 3D, and 4).
Cell culture model of epilepsy. Long term cell culture model of epilepsy was performed as described (Furshpan et al., 1989; Meller et al., 2003). Briefly, hippocampal neurons prepared from 1-2 day-old C57BL/6 mice cultured in Neurobasal-A/B27 media supplemented with 10 mM Kyn and 5 mM MgCl2. Culture media was replenished with fresh kynurenic acid/Mg^2+ every 3 days. Cells were used for patch-clamp recording after 3 to 4 weeks. Following the formation of a tight seal in a whole-cell configuration, neurons were current-clamped at ˜−60 mV. In the presence of Kyn, the majority of hippocampal neurons remained quiescent. […] The spontaneous electrical behavior of the culture has many of the characteristics of seizure activity in an intact cortex. This system allows seizure-related cellular mechanisms to be studied in long-term cell culture.
Patch clamp techniques. Whole-cell voltage-clamp and current-clamp recordings were performed as described in our previous studies (Xiong et al., 2004). Patch electrodes were constructed from thin-welled borosilicate glass (1.5 mm diameter, WPI, Sarasota, Fla., USA) on a two-stage puller (PP83 Narishige, Tokyo). The resistances of patch electrodes were 1.5-3 MΩ when filled with the intracellular solution (see below). Whole-cell currents were recorded using Axopatch 200B amplifiers with pCLAMP software (Axon Instruments, CA, USA). Data were filtered at 2 kHz and digitized at 5 kHz using Digidata 1322 (Axon Instruments). During each experiment, a voltage step of −10 mV was applied periodically to monitor the cell capacitance and the access resistance. A multi-barrel perfusion system (SF-77, Warner Instrument Co., Conn., USA) was employed to achieve a rapid exchange of solutions. All experiments were performed at room temperature (22-24° C.).

mouse hippocampal slices = assay: Low Mg2+-induced epileptiform bursting activity (evoked and spontaneous) in hippocampal slices; format: cell-based; conditions: Mg2+-free aCSF; for frequency of spontaneous clustered bursts / frequency of spontaneous clustered bursts relative to control: bath perfusion
Experimental: Limbic seizures (Avoli et al., 2002) are modeled by removing Mg^2+ from artificial cerebral spinal fluid (aCSF) in slices of hippocampal-entorhinal cortex, which triggers interictal-like bursting activity, or spontaneous ictal-like events (Wong et al., 2001; Anderson et al., 1986). In the presence of normal Mg^2+ (1.5 mM), stimulation of Schaffer collaterals induces single population spike or EPSP in the CA1 region of the hippocampus. […] Perfusion with Mg^2+-free aCSF for about 30 min evoked synchronous burst firing with the same stimulation intensity. In about, 30% of the slices, spontaneous clustered bursts developed in the absence of electrical stimulation. Bath perfusion of amiloride or PcTX1 for 10 min reduced the amplitude and frequency of evoked bursting activity (FIGS. 5A and 5B). Amiloride (100 μM) reduced the amplitude of the first and the second population spikes (from 1.2±0.2 mV to 0.5±0.2 mV and 0.6±0.03 mV to 0.2±0.05 mV, respectively (n=9: p<0.01, FIGS. 5A and 5B), and the number of population spikes (from 4.7±0.6 to 3.3±0.8, n=9, p<0.05)). Similarly, PcTX1 (200 ng/mL) attenuated the amplitude of the population spike (from 2.1±0.3 to 1.6±0.2 mV, n=9, p<0.05) and the number of spikes (from 4.2±0.6 to 3.0±0.6, p<0.05).
Preparation of hippocampal slices and brain slice recording. Hippocampal slices were obtained from 8- to 10-week-old mice. The protocol for brain-slice recording was approved by the Institutional Animal Care and Use Committee of Legacy Research. Animals were deeply anesthetized with isoflurane and decapitated. Brains were quickly removed and placed in ice-cold solution that contained: 125 mM sucrose, 2.5 mM KCl, 26 mM NaHCO3, 1.25 mM NaHPO4, 6.0 mM […], 0.5 mM CaCl2, and 10 mM glucose, and was saturated with 95% O2 and 5% CO2 (pH 7.4). Hippocamnpal slices were cut in 400 μm thickness in transverse plane with a vibratome (Leica VT 1000S) and placed in a slice holding chamber (BSC-PC Prechamber, Warner Instrument) and incubated in normal artificial cerebral spinal fluid (aCSF) that contained: 125 mM NaCl, 2.5 mM KCl, 26 mM NaHCO3, 1.25 mM […], 1.0 mM MgSO4, 2.0 mM CaCl2, and 10 mM glucose, and was saturated with 95% O2 and 5% CO2 (pH 7.4).
Following ˜60 min of incubation at room temperature, individual slices were transferred to a submerged slice chamber with a volume of 0.5 mL (Warner Instruments, Hamden, Conn.) and perfused with oxygenated aCSF (35° C.) at a rate of 3-4 mL/min. Recording electrodes were pulled from borosilicate glass and filled with aCSF. The population spike and the field excitatory postsynaptic potentials (fEPSP) were recorded in stratum pyramidale and striatum radiatum of hippocampal CA1 region, by stimulating Schaffer Collaterals.
For low Mg^2+ induced epileptic burst activity, Mg^2+-free aCSF was perfused to the slices for ˜30 min. For stimulus-train induced bursting discharges (STIB), each stimulation train consisted of 120 pulses at 60 Hz and each pulse was 100 μsec in duration (Stasheff et al., 1985). A 10-minute interval of non-stimulation was provided between successive trains of high frequency stimulation. Stimulation electrodes were located in striatum radiatum between CA1 and CA3 region. The population spikes were recorded from striatum pyramidale of the CA3 region.
Pharmacological and electrical bursting models. To induce epileptic burst discharges, Mg^2+-free aCSF was applied. Mg^2+-free aCSF was obtained by simply omitting MgSO4 from aCSF.

[2] = 30 μM amiloride, perfused 2 min before and during Kyn withdrawal
[3] = 100 μM amiloride, bath perfusion 10 min, evoked
[4] = PcTX1 (venom 200 ng/mL total protein per FIG. 4 legend)
[5] = PcTX1 200 ng/mL, bath perfusion 10 min, evoked

## NC(N)=NC(=O)c1nc(Cl)c(N)nc1N [amiloride, 3,5-diamino-6-chloro-N(diaminomethylidene)pyrazine-2-carboxamide]
[1]; [2]
  Kyn withdrawal-induced paroxysmal burst activity (frequency): 2.5±0.4 Hz
  Kyn withdrawal-induced sustained membrane depolarization: 28.6±2.7 mV
Mouse hippocampal slices; [3]
  amplitude of the first population spike: 0.5±0.2 mV
  amplitude of the second population spike: 0.2±0.05 mV
  number of population spikes: 3.3±0.8
Mouse hippocampal slices
  frequency of spontaneous clustered bursts: 26.0 ± 5.8 min⁻¹
  frequency of spontaneous clustered bursts relative to control: 0.84±0.05 of control

## Psalmotoxin 1 [PcTX1]
[1]; [4]
  Kyn withdrawal-induced burst activity (frequency): 1.2±0.3 Hz
  Kyn withdrawal-induced membrane depolarization: 10.7±1.8 mV
Mouse hippocampal slices
  frequency of spontaneous clustered bursts: 59.9 ± 11.3 min⁻¹
  frequency of spontaneous clustered bursts relative to control: 0.68±0.07 of control
Mouse hippocampal slices; [5]
  amplitude of the population spike: 1.6±0.2 mV
  number of spikes: 3.0±0.6
